Laboratory results: PMC8333425, “Discovery of a dual Ras and ARF6 inhibitor from a GPCR endocytosis screen” (Nature Communications, 2021)
Where “and” joins values, the source holds several entries; their conditions need not be identical. Identical values can stand only once. Numbered stars: 1 amine (or outer) side, 2 acyl side, 3 side chain; on linkers, the order of the positions; unused ones are H or OH. Bridge positions count the residues as written; N and C are the ends. Square brackets hold non-standard residues; d marks the D form. Peptide text beside a SMILES is read from it. * marks the point of attachment. Leu(3R-OH,Nα-propionyl) = CCC(=O)N[C@H](C(=O)*)[C@H](O)C(C)C; X1 = CC(C)[C@@H](O[*:3])[C@H](N[*:1])C(=O)[*:2]; NMeT = CN[C@H](C(=O)O)[C@@H](C)O; dPhLac = O=C(O)[C@H](O)Cc1ccccc1; NMeA = CN[C@@H](C)C(=O)O; NMeDha = C=C(NC)C(=O)O

How the values were obtained:
[1] = test system: ERK1/2 activation by AT1R; test: Western blot of AT1R-mediated ERK1/2 phosphorylation; type: cell-based, human; settings: 50 μM
Description: (§1) HEK293SL cells (10^5 cells per well) were seeded in a poly-L-lysine-coated six-well plate and transiently transfected with 3 μg Flag-AT1R, HA-B2R or HA-β2AR and/or 500 ng Flag-MEK1-WT, Flag-MEK1-DD, Flag-BRAF-WT, Flag-BRAF-V600E, Flag-K-Ras-WT, Flag-K-Ras-G12V, HA-ARF6-WT, or HA-ARF6-T27N. Gαq/11 KO and βarr1/2 KO cells were seeded onto 100 mm dishes at a density of 10^6 cells per dish. Next day, cells were transfected with 3 μg AT1R alone or along with 500 ng of β-arrestin2 using PEI. After 18 h of transfection, cells were detached and re-seeded onto poly-L-lysine coated 12-well plates (~1.5–2 × 10^5cells/well) for subsequent experiments. Forty-eight hours post transfection, in a 37 °C water bath, cells were serum-starved for 30 min, pretreated with DMSO (0.1%) or compound 21/Rasarfin (50 µM or at indicated concentrations) for 30 min, then stimulated or not with the indicated ligand [AngII (1 µM), BK (1 µM), Iso (10 µM) or EGF (100 ng/ml)] at indicated times. Cells were put on ice, washed with PBS and solubilized in 2x laemmli buffer (250 mM Tris–HCl pH 6.8, 2% SDS (w/v), 10% glycerol (v/v), 0.01% bromophenol blue (w/v) and 5% β-mercaptoethanol (v/v)) by heating at 65 °C for 15 min. Lysates were resolved on 10 or 14% SDS-PAGE, transferred to nitrocellulose membranes and immunoblotted for p-ERK1/2, ERK1/2, p-Akt, Akt, HA, Myc, β-actin or FLAG. ImageLab 5.2 software was used to quantify the digital blots as fold of the phosphorylated protein over total protein, which were then normalized as indicated in the figure legends. Uncropped immunoblots are provided in the Source Data file.

[2] = test system: A549 cells; test: Cell viability assay (MTT), A549; type: cell-based, human; settings: Doxorubicin
Description: (§2) MDA-MB-231 breast cancer cells and A549 lung carcinomas (1500 cells in 150 μl/well) were seeded overnight on a clear 96-well plate. Twenty-four hours later, the cells were treated with 0.1% DMSO, or different concentrations of Rasarfin (as indicated), or 10 µM of 21.4, 21.8 (MDA-MB-231 breast cancer cells) or Doxorubicin for the indicated times at 37 °C. At each time point, 10 μl of 5 mg/ml MTT was added to each well and the plates were incubated for an additional 4 h at 37 °C. The absorbance at 590 nm was measured by plate reader. Experiments were done in triplicate and repeated three times.

[3] = test system: MDA-MB-231 cells; test: Cell viability assay (MTT), MDA-MB-231; type: cell-based, human; settings: for cell viability (MTT signal): S_Fig12f
Description: as §2

[4] = test system: MEK1; test: Western blot of ERK1/2 phosphorylation induced by MEK1 (MEK1-WT / MEK1-DD); type: cell-based, human
Description: as §1

[5] = target: T1, Gαq (Homo sapiens, UniProt P50148); test: Gαq BRET sensor, AT1R-mediated; type: cell-based
T1 construct: expressed in transfected cells; host or cells: HEK293SL
Description: HEK293SL cells were seeded at a density of 7.5 × 10^5 cells per 100-mm dish and 24 h later, transiently transfected as such. For receptor internalization experiments, cells were transfected with 0.12 μg AT1R-RlucII, B2R-RlucII, or β2AR-RlucII and 0.48 μg of either rGFP-CAAX (to assess removal from the PM) or rGFP-FYVE (to assess accumulation in the endosomes). For β-arrestin recruitment assays, cells were transfected with 0.48 μg of receptor-YFP along with 0.12 μg of β-arrestin-RlucII. For β-arrestin/AP-2 binding experiments, cells were transfected with 1 μg Flag-AT1R, 1 μg β2-Adaptin-YFP, and 0.12 μg β-arrestin2-RlucII. For G protein activation, cells were transfected with 3 μg of sp-Flag-AT1R along with either 4.5 μg of the Gαq-polycistronic BRET sensor or 0.24 μg of the Gαi3-RlucII and 0.6 μg of GFP10-Gγ2 and Gβ1 sensors or 0.12 μg PKN-RBD-RlucII and 0.48 μg of rGFP-CAAX. For PKC activation, cells were transfected with 3 μg of sp-Flag-AT1R and 0.18 μg of the PKC sensor. For GTPase activation experiments, cells were transfected with 1 μg Flag-AT1R, 0.48 μg of rGFP-CAAX, and either 0.12 μg of GGA3-PBD-RlucII, PAK-CRIB-RlucII or Raf-RBD-RlucII. For biosensor validation experiments, cells were additionally transfected with 500 ng Flag-K-Ras-WT, Flag-K-Ras-G12V, Flag-K-Ras-SOS-CAAX, HA-ARF6-WT, HA-ARF6-T27N, Myc-Rac1-WT, Myc-Rac1-Q61L or Myc-Rac1-T17N. For PI3K/Akt activation experiments, cells were transfected with 0.48 μg of rGFP-CAAX and 0.12 μg of Akt (PH)-RlucII. After 18 h of transfection, the media was replaced and cells were divided for subsequent experiments. Cells were detached and seeded onto poly-L-ornithine-coated 96-well flat white bottom plates (BrandTech Scientific) at a density of 2.5 × 10^4 cells per well in media. […] For kinetics of β-arrestin recruitment or β-arrestin binding to receptor and AP-2 experiments, cells were serum starved for 30 min, pretreated with 21 (50 µM) or Barbadin (100 µM) for 30 min, stimulated with 100 nM AngII or 1 µM BK and BRET signals were monitored at indicated times using a Victor X Light plate reader (PerkinElmer). […] The BRET ratio was determined by calculating the ratio of the light emitted by YFP over the light emitted by the RlucII. […] For the kinetics of GTPase and PI3K/Akt activation, cells were serum starved, pretreated with 21 (50 µM) or Wortmannin (200 nM) for 30 min, stimulated with ligand (100 nM AngII or 100 ng/ml EGF) and BRET signals were monitored at indicated times. […] BRET signals were monitored using a Synergy2 (BioTek) microplate reader and coelenterazine 400a (final concentrations of 5 µM) added 3–5 min prior to BRET measurements. […] The BRET ratio was determined by calculating the ratio of the light emitted by rGFP/GFP10 over the light emitted by the RlucII.

[6] = test system: PI3K/Akt; test: PI3K/Akt BRET sensor (Akt (PH)-RlucII / rGFP-CAAX), EGFR-mediated; type: cell-based, human
Description: HEK293SL cells were seeded at a density of 7.5 × 10^5 cells per 100-mm dish and 24 h later, transiently transfected as such. For receptor internalization experiments, cells were transfected with 0.12 μg AT1R-RlucII, B2R-RlucII, or β2AR-RlucII and 0.48 μg of either rGFP-CAAX (to assess removal from the PM) or rGFP-FYVE (to assess accumulation in the endosomes). For β-arrestin recruitment assays, cells were transfected with 0.48 μg of receptor-YFP along with 0.12 μg of β-arrestin-RlucII. For β-arrestin/AP-2 binding experiments, cells were transfected with 1 μg Flag-AT1R, 1 μg β2-Adaptin-YFP, and 0.12 μg β-arrestin2-RlucII. For G protein activation, cells were transfected with 3 μg of sp-Flag-AT1R along with either 4.5 μg of the Gαq-polycistronic BRET sensor or 0.24 μg of the Gαi3-RlucII and 0.6 μg of GFP10-Gγ2 and Gβ1 sensors or 0.12 μg PKN-RBD-RlucII and 0.48 μg of rGFP-CAAX. For PKC activation, cells were transfected with 3 μg of sp-Flag-AT1R and 0.18 μg of the PKC sensor. For GTPase activation experiments, cells were transfected with 1 μg Flag-AT1R, 0.48 μg of rGFP-CAAX, and either 0.12 μg of GGA3-PBD-RlucII, PAK-CRIB-RlucII or Raf-RBD-RlucII. For biosensor validation experiments, cells were additionally transfected with 500 ng Flag-K-Ras-WT, Flag-K-Ras-G12V, Flag-K-Ras-SOS-CAAX, HA-ARF6-WT, HA-ARF6-T27N, Myc-Rac1-WT, Myc-Rac1-Q61L or Myc-Rac1-T17N. For PI3K/Akt activation experiments, cells were transfected with 0.48 μg of rGFP-CAAX and 0.12 μg of Akt (PH)-RlucII. After 18 h of transfection, the media was replaced and cells were divided for subsequent experiments. Cells were detached and seeded onto poly-L-ornithine-coated 96-well flat white bottom plates (BrandTech Scientific) at a density of 2.5 × 10^4 cells per well in media. The next day, cells were washed once with Tyrode’s buffer (140 mM NaCl, 2.7 mM KCl, 1 mM CaCl2, 12 mM NaHCO3, 5.6 mM D-glucose, 0.5 mM MgCl2, 0.37 mM NaH2PO4, 25 mM HEPES, pH 7.4) and left in Tyrode’s buffer. For kinetics of β-arrestin recruitment or β-arrestin binding to receptor and AP-2 experiments, cells were serum starved for 30 min, pretreated with 21 (50 µM) or Barbadin (100 µM) for 30 min, stimulated with 100 nM AngII or 1 µM BK and BRET signals were monitored at indicated times using a Victor X Light plate reader (PerkinElmer). Coelenterazine H (final concentration of 5 µM) was added 3–5 min prior to BRET measurements. Filter set was 460/80 nm and 535/30 nm for detecting the RlucII Renilla luciferase (donor) and YFP (acceptor) light emissions, respectively. The BRET ratio was determined by calculating the ratio of the light emitted by YFP over the light emitted by the RlucII. For G protein activation, cells were serum starved, pretreated with compounds for 30 min, stimulated with 100 nM AngII for 2 min (Gαq, Gαi3, and Rho sensors) or 5 min (PKC sensor). For the kinetics of GTPase and PI3K/Akt activation, cells were serum starved, pretreated with 21 (50 µM) or Wortmannin (200 nM) for 30 min, stimulated with ligand (100 nM AngII or 100 ng/ml EGF) and BRET signals were monitored at indicated times. For concentration-response curves, cells were serum-starved, pretreated with various concentrations of compounds for 30 min and stimulated with ligand (100 nM AngII, 1 µM BK, 10 µM Isoproterenol (Iso) or 100 ng/ml EGF) in Tyrode’s buffer for 30 min for receptor internalization, 10 min for ARF6, 2 min for Rac and Rho activation and 5 min for Ras activation and PI3K/Akt activation. BRET signals were monitored using a Synergy2 (BioTek) microplate reader and coelenterazine 400a (final concentrations of 5 µM) added 3–5 min prior to BRET measurements. Filter set was 410/80 nm and 515/30 nm for detecting the RlucII Renilla luciferase (donor) and rGFP/GFP10 (acceptor) light emissions, respectively. The BRET ratio was determined by calculating the ratio of the light emitted by rGFP/GFP10 over the light emitted by the RlucII.

T1 sequence (P50148 whole entry): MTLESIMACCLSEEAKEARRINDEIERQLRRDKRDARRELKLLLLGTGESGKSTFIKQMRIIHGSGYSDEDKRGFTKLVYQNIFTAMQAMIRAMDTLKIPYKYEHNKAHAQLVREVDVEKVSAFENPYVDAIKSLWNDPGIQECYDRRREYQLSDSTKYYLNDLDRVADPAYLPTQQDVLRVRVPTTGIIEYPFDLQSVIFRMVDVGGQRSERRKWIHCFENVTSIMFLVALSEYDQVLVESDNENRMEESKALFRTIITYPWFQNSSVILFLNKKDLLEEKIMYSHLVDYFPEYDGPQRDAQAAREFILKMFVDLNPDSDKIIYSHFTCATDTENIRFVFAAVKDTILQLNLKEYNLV
T1 sequence (P62873 whole entry partner): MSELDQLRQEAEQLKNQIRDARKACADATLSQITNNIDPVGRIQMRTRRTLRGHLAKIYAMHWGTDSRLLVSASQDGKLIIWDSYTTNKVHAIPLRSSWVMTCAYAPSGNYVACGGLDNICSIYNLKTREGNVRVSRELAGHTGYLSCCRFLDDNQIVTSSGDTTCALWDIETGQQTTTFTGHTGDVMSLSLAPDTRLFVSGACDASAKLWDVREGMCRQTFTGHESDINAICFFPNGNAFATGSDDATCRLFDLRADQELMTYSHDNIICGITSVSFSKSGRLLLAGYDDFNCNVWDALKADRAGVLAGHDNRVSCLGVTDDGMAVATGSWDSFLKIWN
T1 sequence (P63211 2-71 partner limits assumed): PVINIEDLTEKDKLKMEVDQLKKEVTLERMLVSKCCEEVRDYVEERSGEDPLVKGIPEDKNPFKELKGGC

CCC(=O)N1CCN(c2ccc(NC(=O)c3cc4ccccc4o3)cc2Cl)CC1 [Compound 21.2]
inhibition of AT1R-mediated ERK1/2 (MAPK) activation (Fig. 8b) [1]: lost their ability to inhibit MAPK

COc1cccc2c1C(=O)c1c(O)c3c(c(O)c1C2=O)C[C@@](O)(C(=O)CO)C[C@@H]3O[C@H]1C[C@H](N)[C@H](O)[C@H](C)O1 [Doxorubicin, reference compound]
cell viability (MTT signal) ([2]; 24h): 0.213 and 0.2235 and 0.2068 | cell viability (MTT signal) ([2]; 48h): 0.2026 and 0.1628 and 0.1313 | cell viability (MTT signal) ([2]; 72h): 0.1331 and 0.1199 and 0.1728 | MDA-MB-231 cell viability (MTT) ([3]; Doxorubicin 10 µM): potently killed cells | cell viability (MTT signal) ([3]; 24h): 0.213 and 0.2235 and 0.2068 | cell viability (MTT signal) ([3]; 48h): 0.2026 and 0.1628 and 0.1313 | cell viability (MTT signal) ([3]; 72h): 0.1199 and 0.1728 and 0.1331

O=C(NOCC1CC1)c1ccc(F)c(F)c1Nc1ccc(I)cc1Cl [PD184352, reference compound]
Predicted (LS) mean diff. DMSO vs. compound (Bonferroni's multiple comparisons test) ([4]; Flag-MEK1 DD): 3.803 | ERK1/2 phosphorylation relative to mock (S_Fig.4c) ([4]; Flag-MEK1 WT): 0.4899 and 0.8 and 0.4446 | Predicted (LS) mean diff. DMSO vs. compound (Bonferroni's multiple comparisons test) ([4]; Flag-MEK1 WT): 0.8426 | ERK1/2 phosphorylation relative to mock (S_Fig.4c) ([4]; mock): 1 | Predicted (LS) mean diff. DMSO vs. compound (Bonferroni's multiple comparisons test) ([4]; mock): 0

C=C1C(=O)N[C@@H](C)C(=O)N(C)[C@@H](C)C(=O)N[C@@H]([C@H](OC(=O)[C@@H](NC(=O)CC)[C@H](O)C(C)C)C(C)C)C(=O)N(C)[C@@H]([C@@H](C)OC)C(=O)O[C@H](C(C)C)[C@H](NC(C)=O)C(=O)O[C@H](Cc2ccccc2)C(=O)N1C [UBO-QIC, reference compound] (Ac-[X1][dPhLac][NMeDha]A[NMeA][X1](Leu(3R-OH,Nα-propionyl))[NMeT](Me); ester 1-C)
Gq BRET sensor signal (S_Fig.4b), single experiments [5]: 0.0505 and 0.06125 and 0.044

COC[C@H]1OC(=O)c2coc3c2[C@@]1(C)C1=C(C3=O)[C@@H]2CCC(=O)[C@@]2(C)C[C@H]1OC(C)=O [Wortmannin, reference compound]
EGF-promoted BRET ([6]; Wortmannin-treated, Log [EGF] (ng/ml) -12): 0

EGF
EGF-promoted BRET ([6]; EGF 100 ng/ml, time 0 min): 0 | EGF-promoted BRET ([6]; EGF 100 ng/ml, time 1 min): 0.3827 and 0.39 | EGF-promoted BRET ([6]; EGF 100 ng/ml, time 2 min): 0.5443 and 0.5547 | EGF-promoted BRET ([6]; EGF 100 ng/ml, time 3 min): 0.521 and 0.605 | EGF-promoted BRET ([6]; EGF 100 ng/ml, time 4 min): 0.6008 and 0.512 and 0.5428 | EGF-promoted BRET ([6]; EGF 100 ng/ml, time 5 min): 0.5307 and 0.4867 and 0.5263
